Assay results from patent US20090285791A1, “Regenerating and enhancing development of muscle tissue” (Sbarro Health Research Organization, Inc., priority 2008, published 2009).

Columns and labels:
[1] = system: C2C12 cells; experiment: C2C12 myoblast differentiation in the presence of kinase inhibitor DRB; type: cell-based, mouse; details: C2C12 induced to differentiate
Protocol: C2C12 cells were grown in DMEM supplemented with 20% FBS (GM) or with 2% HS (DM).
Immunoprecipitations were performed with anti-MyoD antibody (Santa Cruz, Calif.) followed by the addition of protein A-sepharose. Beads were extensively washed and loading buffer without β-mercaptoethanol was added at 4° C. to work in non-denaturing conditions. Samples were resolved in PAA-Gels and transferred to a Hybond-ECL nitrocellulose (Amersham, IL). The blots were blocked with TBST containing 5% non-fat dry milk. Antibodies specific for cdk9, myogenin, MHC, RNAPolII, P-Serine2-CTD, Desmin and tubulin were used as described in Simone et al., 2002; Giacinti et al., 2006. Anti-rabbit and anti-mouse peroxidase conjugated and ECL detection system (Amersham, IL) were used for detection.
Since cdk9-55 activity, as well as cdk9-42 activity (Shore et al., Gene 307, 175-182, 2003; Liu and Herman, J. Cell. Physiol. 203, 251-260, 2005), could be inhibited by pharmacological blockade, C2C12 cells were induced to differentiate with the kinase specific inhibitor DRB.

[2] = target: cdk9-55 (Homo sapiens, UniProt P50750); details: Shore et al. 2003; Liu and Herman 2005; cited from earlier work
Chain of cdk9-55 (P50750 1-489 isoform P50750-2): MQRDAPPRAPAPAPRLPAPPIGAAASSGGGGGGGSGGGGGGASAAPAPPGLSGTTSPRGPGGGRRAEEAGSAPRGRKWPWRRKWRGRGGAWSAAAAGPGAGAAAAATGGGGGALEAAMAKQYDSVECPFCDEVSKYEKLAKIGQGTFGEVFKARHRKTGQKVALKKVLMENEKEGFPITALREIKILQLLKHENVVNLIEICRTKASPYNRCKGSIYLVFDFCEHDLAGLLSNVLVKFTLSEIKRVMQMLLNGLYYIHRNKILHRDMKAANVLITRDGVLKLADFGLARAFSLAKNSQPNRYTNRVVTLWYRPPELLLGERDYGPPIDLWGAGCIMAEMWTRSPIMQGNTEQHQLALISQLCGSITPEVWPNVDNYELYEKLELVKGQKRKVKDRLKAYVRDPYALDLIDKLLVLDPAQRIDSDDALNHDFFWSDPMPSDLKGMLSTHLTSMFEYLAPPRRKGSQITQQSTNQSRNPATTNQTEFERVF
Chain of cdk9-55 (O60563 whole entry partner): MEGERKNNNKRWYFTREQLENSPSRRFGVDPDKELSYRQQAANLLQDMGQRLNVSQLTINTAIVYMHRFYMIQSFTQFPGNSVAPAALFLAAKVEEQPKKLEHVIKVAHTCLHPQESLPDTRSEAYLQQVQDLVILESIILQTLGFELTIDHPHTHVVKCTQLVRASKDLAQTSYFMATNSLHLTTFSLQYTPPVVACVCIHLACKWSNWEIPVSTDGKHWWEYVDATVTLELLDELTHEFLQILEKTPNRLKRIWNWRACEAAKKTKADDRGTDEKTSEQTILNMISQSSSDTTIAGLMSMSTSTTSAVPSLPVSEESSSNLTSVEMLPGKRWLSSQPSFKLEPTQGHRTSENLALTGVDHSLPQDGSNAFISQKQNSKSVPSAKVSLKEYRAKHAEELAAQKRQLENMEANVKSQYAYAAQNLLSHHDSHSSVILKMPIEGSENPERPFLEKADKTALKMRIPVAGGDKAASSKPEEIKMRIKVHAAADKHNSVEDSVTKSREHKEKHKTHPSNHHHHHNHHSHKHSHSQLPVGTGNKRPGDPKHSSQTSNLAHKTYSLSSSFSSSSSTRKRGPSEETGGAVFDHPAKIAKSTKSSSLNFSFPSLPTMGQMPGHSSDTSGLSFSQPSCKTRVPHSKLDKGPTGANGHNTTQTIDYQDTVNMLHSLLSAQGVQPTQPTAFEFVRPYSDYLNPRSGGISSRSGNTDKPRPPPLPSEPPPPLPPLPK

## OC[C@H]1O[C@@H](n2cnc3cc(Cl)c(Cl)cc32)[C@H](O)[C@@H]1O [DRB, 5,6-dichloro-1-β-d-ribofuranosylbenzimidazole]
[1]; DRB 100 μM
  multinucleated myotubes: absence of multinucleated myotubes
[1]; DRB 100 μM (FIG. 1D, 1E)
  terminal differentiation: failed to undergo terminal differentiation
[1]; DRB 100 μM, immunoblot
  MHC levels: low MHC levels
[2]
  cdk9-55 kinase activity: specifically inhibited
